In patent publication US20200016059A1, “PERSONAL CARE COMPOSITIONS WITH GLUTATHIONE PRECURSOR COMPRISING NICOTINAMIDE AND AMINO ACIDS” (Conopco, Inc., d/ba UNILEVER, priority 2016, published 2020):

Assays:
Format in all cases: cell-based
Aged Human Keratinocytes = experiment: Glutathione assay (total glutathione, GSH-GSSG Glo) after menadione challenge; conditions: for Mean (uM glutathione): Table 1A; for % Protection (improvement vs. vehicle control + menadione): glutathione
From the text: The medium was refreshed every 2-3 days. Subsequently, cells were trypsinized at 90% confluency and seeded at a density of 1×10^4 per well into 96-well plates with white wall and clear bottom. […] The concentration of all amino acids constituting the GAP mixture used in this assay are designated in the data tables, and fully described in the abbreviations list below. After one or two hours of pre-treatment with GAP (and additional test reagents where described), keratinocytes were then challenged with 25 uM menadione (Sigma-Aldrich), a known inducer of oxidative stress. […] In summary, after cell treatment, the media was removed and replaced with a cell lysis reagent for 5 minutes at 20-25° C.; note, all remaining steps were also conducted at 20-25° C. Next, a luciferase generation reagent was added to each well and incubated for 30 minutes. Following this step, a luciferin detection reagent was added to each well and plates were incubated for 15 minutes. Finally, plates were then read for luminescence in a FlexStation 3 plate reader (Molecular Devices). Total glutathione levels were calculated after interpolation of glutathione concentrations from a standard curve. Experimental conditions were typically conducted in at least triplicate determinations. Statistical significance was calculated using 1-way ANOVA. Percent protection was calculated by using the calculated glutathione levels from each experiment in the following equation: […]

Human Keratinocytes [1] = experiment: Reactive oxygen species (ROS) assay, CellROX green; conditions: for % Protection (improvement vs. vehicle control + menadione): ROS
Description: The medium was refreshed every other day. Subsequently, cells were trypsinized at 90% confluency and seeded at a density of 1-2×10^4 per well into 96-well plates with black wall and clear bottom. On the second day after seeding, cell medium was replaced with Hank's Balanced Salt Solution (HBSS) with or without menadione (10-25 uM), GAP (typically at 49 uM pyroglutamic acid, 60 uM cystine, 194 uM glycine), GAP vehicle (0.2 mM NaOH, pH 7.5), above-described additional test reagents, combinations of GAP with additional test reagents, or L-cystine esters alone and incubated for additional 18 hours. For ROS detection, CellROX green (Life Tech, Thermo Fisher Scientific, Rockford, USA) reagent was added into each well to a final concentration of 15-25 uM and incubated for additional 2-4 hours at 37° C. in a humidified incubator. The ROS fluorescence was detected using a Tecan microplate reader (Excitation/Emission=490/525). […] Where indicated, percent protection was calculated as a comparison to menadione alone treatment, using the measured relative fluorescent units in the following equation: ROS levels were evaluated together with cell viability because it is possible to get a false negative for ROS if treatment is so toxic that at the time of assay, cells are dead (and there are no longer any detectable ROS). Decrease in ROS levels is meaningful if cells are still viable.

Human Keratinocytes [2] = experiment: Cell viability assay (CCK-8); conditions: for % Protection (improvement vs. vehicle control + menadione): cell viability
Description: The medium was refreshed every other day. Subsequently, cells were trypsinized at 90% confluency and seeded at a density of 2×10^4 per well into 96-well transparent tissue culture plates. On the second day after seeding, cell medium was replaced with treatments as described above in ROS assay section. After 18 hours, […] (CCK-8) reagent (Dojindo, Kumamoto, Japan) was diluted 1:10 in HBSS and incubated with cells for 4 h at 37° C. in a humidified incubator. Optical absorption at 450 nm was measured using a Tecan Safire2 plate reader. […] Where indicated, percent protection was calculated as a comparison to menadione alone treatment, using the measured relative absorbance units in the following equation: […]

[3] = Table 1A glutathione, test reagent at 0.5 mM, alone or with GAP 10, + 25 uM menadione
[4] = Table 1A glutathione, test reagent at 5 mM, alone or with GAP 10, + 25 uM menadione
[5] = Table 1A glutathione, test reagent at 10 mM, alone or with GAP 10, + 25 uM menadione
[6] = nicotinamide / nicotinamide riboside / picolinamide at 0.5 mM, alone or with GAP 10, + 25 uM menadione
[7] = nicotinamide / picolinamide at 5 mM, alone or with GAP 10, + 25 uM menadione
[8] = nicotinamide / picolinamide at 10 mM, alone or with GAP 10, + 25 uM menadione
[9] = Table 1B, vs menadione alone, nicotinamide 10 mM, GAP typically 49/60/194 uM
[10] = cystine ester at 40 uM + menadione
[11] = cystine ester at 80 uM + menadione
[12] = cystine ester at 20 uM + menadione
[13] = cystine ester at 160 uM + menadione

SMILES: NC(=O)c1cccnc1 [Nicotinamide]
- % Protection (Aged Human Keratinocytes; [3]): 0%
- % Protection (Aged Human Keratinocytes; [4]): 0%
- % Protection (Aged Human Keratinocytes; [5]): 1%
- Mean (uM glutathione) (Aged Human Keratinocytes; [6]): 0.17 µM
- Mean (uM glutathione) (Aged Human Keratinocytes; [7]): 0.14 µM
- Mean (uM glutathione) (Aged Human Keratinocytes; [8]): 0.20 µM
- % Protection (Aged Human Keratinocytes; Table 2A glutathione, nicotinamide at 5 mM, alone or with amino acids, + menadione): 3^1%
- Mean (Glutathione Synthesis) (Aged Human Keratinocytes; Table 2A, nicotinamide at 5 mM, alone or with amino acids, + menadione): 0.13^1
- ROS production (% of control) (Human Keratinocytes [1]; Table 1B, + menadione, 18 h, nicotinamide 10 mM, GAP typically 49 uM pyroglutamic acid, 60 uM cystine, 194 uM glycine): 231.00^3 % of control
- % Protection (ROS) (Human Keratinocytes [1]; [9]): 17.70^3%
- cell viability (% of control) (Human Keratinocytes [2]; Table 1B, + menadione, 18 h, nicotinamide 10 mM, GAP typically 49/60/194 uM): 92.90^3 % of control
- % Protection (cell viability) (Human Keratinocytes [2]; [9]): 15.41^3%

SMILES: CC(C)(C)OC(=O)[C@@H](N)CSSC[C@H](N)C(=O)OC(C)(C)C.Cl.Cl [DTBC, Ditert-butyl L-cystinate dihydrochloride]
- Mean (μm glutathione) (Aged Human Keratinocytes; [10]): 0.17^1 μm
- Mean (μm glutathione) (Aged Human Keratinocytes; [11]): 0.19^1 μm
- % Protection (improvement vs. vehicle control + menadione) (Aged Human Keratinocytes; [10]): 0^1%
- % Protection (improvement vs. vehicle control + menadione) (Aged Human Keratinocytes; [11]): 1^1%
- % Protection (improvement vs. vehicle control + menadione) (Human Keratinocytes [1]; [12]): 2.2%
- % Protection (improvement vs. vehicle control + menadione) (Human Keratinocytes [1]; [10]): 13.8^1,2%
- % Protection (improvement vs. vehicle control + menadione) (Human Keratinocytes [1]; [11]): 28.4^1,2%
- % Protection (improvement vs. vehicle control + menadione) (Human Keratinocytes [1]; [13]): 41.1^1,2%
- % Protection (improvement vs. vehicle control + menadione) (Human Keratinocytes [2]; [12]): 6.0%
- % Protection (improvement vs. vehicle control + menadione) (Human Keratinocytes [2]; [10]): 3.0%
- % Protection (improvement vs. vehicle control + menadione) (Human Keratinocytes [2]; [11]): −0.1%
- % Protection (improvement vs. vehicle control + menadione) (Human Keratinocytes [2]; [13]): 41.3^2%
- Cell viability (% of vehicle control) (Human Keratinocytes [2]; [12]): 78.1^1 % of vehicle control
- Cell viability (% of vehicle control) (Human Keratinocytes [2]; [10]): 75.9^1 % of vehicle control
- Cell viability (% of vehicle control) (Human Keratinocytes [2]; [11]): 73.6^1 % of vehicle control
- Cell viability (% of vehicle control) (Human Keratinocytes [2]; [13]): 104.2^2 % of vehicle control

SMILES: NC(=O)c1ccc[n+]([C@@H]2O[C@H](CO)[C@@H](O)[C@H]2O)c1 [Nicotinamide riboside, nicotinamide riboside]
- % Protection (Aged Human Keratinocytes; [3]): 0%
- Mean (uM glutathione) (Aged Human Keratinocytes; [6]): 0.16 µM

SMILES: CCOC(=O)[C@@H](N)CSSC[C@H](N)C(=O)OCC.Cl.Cl [DEC, Diethyl L-cystinate dihydrochloride]
- Mean (μm glutathione) (Aged Human Keratinocytes; [10]): 0.54^1,2 μm
- Mean (μm glutathione) (Aged Human Keratinocytes; [11]): 2.72^1,2 μm
- % Protection (improvement vs. vehicle control + menadione) (Aged Human Keratinocytes; [10]): 13^1,2%
- % Protection (improvement vs. vehicle control + menadione) (Aged Human Keratinocytes; [11]): 93^1,2%
- % Protection (improvement vs. vehicle control + menadione) (Human Keratinocytes [1]; [12]): 38.0^1,2%
- % Protection (improvement vs. vehicle control + menadione) (Human Keratinocytes [1]; [10]): 43.6^1,2%
- % Protection (improvement vs. vehicle control + menadione) (Human Keratinocytes [1]; [11]): 37.7^1,2%
- % Protection (improvement vs. vehicle control + menadione) (Human Keratinocytes [1]; [13]): 32.4^1,2%
- % Protection (improvement vs. vehicle control + menadione) (Human Keratinocytes [2]; [12]): 48.9^2%
- % Protection (improvement vs. vehicle control + menadione) (Human Keratinocytes [2]; [10]): 72.7^1,2%
- % Protection (improvement vs. vehicle control + menadione) (Human Keratinocytes [2]; [11]): 78.3^1,2%
- % Protection (improvement vs. vehicle control + menadione) (Human Keratinocytes [2]; [13]): 65.9^1,2%
- Cell viability (% of vehicle control) (Human Keratinocytes [2]; [12]): 109.8^2 % of vehicle control
- Cell viability (% of vehicle control) (Human Keratinocytes [2]; [10]): 127.3^1,2 % of vehicle control
- Cell viability (% of vehicle control) (Human Keratinocytes [2]; [11]): 131.5^1,2 % of vehicle control
- Cell viability (% of vehicle control) (Human Keratinocytes [2]; [13]): 122.3^1,2 % of vehicle control

SMILES: NC(=O)c1ccccn1 [Picolinamide, picolinamide]
- % Protection (Aged Human Keratinocytes; [3]): 2%
- % Protection (Aged Human Keratinocytes; [4]): 0%
- % Protection (Aged Human Keratinocytes; [5]): 0%
- Mean (uM glutathione) (Aged Human Keratinocytes; [6]): 0.23 µM
- Mean (uM glutathione) (Aged Human Keratinocytes; [7]): 0.18 µM
- Mean (uM glutathione) (Aged Human Keratinocytes; [8]): 0.16 µM

SMILES: COC(=O)[C@@H](N)CSSC[C@H](N)C(=O)OC.Cl.Cl [CDME, L-Cystine dimethyl ester dihydrochloride]
- Mean (μm glutathione) (Aged Human Keratinocytes; [11]): 1.09^1,2 μm
- % Protection (improvement vs. vehicle control + menadione) (Aged Human Keratinocytes; [11]): 31^1,2%
- % Protection (improvement vs. vehicle control + menadione) (Human Keratinocytes [1]; [12]): 18.2^2%
- % Protection (improvement vs. vehicle control + menadione) (Human Keratinocytes [1]; [10]): 15.5^1,2%
- % Protection (improvement vs. vehicle control + menadione) (Human Keratinocytes [1]; [11]): 13.3^1,2%
- % Protection (improvement vs. vehicle control + menadione) (Human Keratinocytes [1]; [13]): 25.7^2%
- % Protection (improvement vs. vehicle control + menadione) (Human Keratinocytes [2]; [12]): 30.2^1,2%
- % Protection (improvement vs. vehicle control + menadione) (Human Keratinocytes [2]; [10]): 33.4^1,2%
- % Protection (improvement vs. vehicle control + menadione) (Human Keratinocytes [2]; [11]): 24.6^1,2%
- % Protection (improvement vs. vehicle control + menadione) (Human Keratinocytes [2]; [13]): 51.7^1,2%
- Cell viability (% of vehicle control) (Human Keratinocytes [2]; [12]): 90.9^1,2 % of vehicle control
- Cell viability (% of vehicle control) (Human Keratinocytes [2]; [10]): 93.1^1,2 % of vehicle control
- Cell viability (% of vehicle control) (Human Keratinocytes [2]; [11]): 87.0^1,2 % of vehicle control
- Cell viability (% of vehicle control) (Human Keratinocytes [2]; [13]): 105.9^1,2 % of vehicle control
